The subject of data set [1] is liver progenitors and liver injury. The following applies: chronic model of liver disease; cited from earlier work.
The test system of data set [2] is HPC number and liver injury. The data set can be described thus: Infusion of SNS agonists into spontaneously steatohepatitic ob/ob mice. In kind it is in vivo.
Data set [3] deals with APAP induced liver injury. The data set can be described thus: APAP induced liver injury model (serum ALT, % necrosis, deaths). Conditions: for ALT 3 h after APAP treatment: APAP alone vs APAP with ISO. The procedure: (§1) Dbh^−/− mice were administered ISO as previously described (Mackintosh, C. A., et al. 2000). Mouse recombinant TWEAK (R&D systems) was administered IP at 0.04 μg/g body weight.
The degree of liver injury was assessed by histology and serum ALT. All liver sections were stained with haematoxylin and eosin (H&E) and scanned by NanoZoomer (Hamamatsu, Japan). Necrotic area was measured and expressed as a percentage of necrotic tissue in whole area of liver section using NDP.view (Hamamatsu, Japan).

A further data set deals with 603B cells. Description: 603B cell proliferation assay (CCK-8 / direct cell counts). The class given is cell-based, murine. On the procedure:
Cell proliferation assay was performed using the Cell counting Kit-8 (CCK-8) according to the manufacturer's protocol.
To further confirm the CCK-8 assay we also directly counted the cell numbers in some experiments. Adherent cells were treated with 0.25% trypsin solution containing 0.02% EGTA in Ca^2+ and Mg^2+ free phosphate-buffered saline at 37° C. for 5 min, and the viable cell number and dead cell number was determined using Nucleocounter (Chemometec).

In data set [4] the test system is hepatic progenitor cells (HPC). Description: CK19 positive HPC number in Dbh−/− mice infused with isoprenaline. In kind it is in vivo. Conditions: ISO infused at 20 mg/kg/day. On the procedure:
as §1

The subject of data set [5] is hepatic progenitor cells (HPC). The data set can be described thus: HPC number in livers of normal C57BL/6J mice (EpCAM flow cytometry, CK19 immunohistochemistry). The class given is in vivo. Conditions: ISO 2.5 mg/kg.
Description: Control mice received PBS vehicle (Con). Data are representative from 2 independent experiments. Data are mean±s.e.m. (n=4 per group);
Mice received either a control treatment (Con) or isoprenaline (ISO);
Formalin-fixed paraffin-embedded tissue were cut at 4 μm onto glass slides coated with poly-l-lysine. For chromogenic IHC, antibody binding was visualized using the ImmPRESS Peroxidase Polymer Detection Reagents (Vector lab, UK). For double chromogenic IHC, microwave heat treatment in citric based solution (Vector lab, UK) were applied after the first color development. For immunofluorescence IHC or immunocytochemistry, Alexa Fluor 555 and Alexa Fluor 488 conjugated secondary antibody were used. Nuclei were stained with DAPI (Vector). All images were captured using a Nikon Eclipse e600 microscope and camera (DXM1200F) and acquired with NIS-Elements Advance software (Nikon). HPC numbers were counted by an expert liver pathologist unaware of the identity of the groups as previously described (Oben, J. A., et al. 2003).
Data set [6] relates to canonical Wnt pathway (β-catenin) in 603B cells. The data set can be described thus: Canonical Wnt pathway in 603B cells (western blot, immunocytochemistry, real-time PCR). The class given is cell-based, murine.
For data set [7], the system named is canonical Wnt pathway on HPC. The data set can be described thus: Canonical Wnt pathway in liver of ISO treated mice (PCR, immunohistochemistry). The class given is in vivo.
Protocol: FIG. 2F are immunohistochemical stains for active β-catenin in a mouse liver 24 hours after administration of vehicle (Con) or Isoprenaline (ISO). Left panel=lower magnification; Right panel=higher magnification;
Formalin-fixed paraffin-embedded tissue were cut at 4 μm onto glass slides coated with poly-l-lysine. For chromogenic IHC, antibody binding was visualized using the ImmPRESS Peroxidase Polymer Detection Reagents (Vector lab, UK). For double chromogenic IHC, microwave heat treatment in citric based solution (Vector lab, UK) were applied after the first color development. For immunofluorescence IHC or immunocytochemistry, Alexa Fluor 555 and Alexa Fluor 488 conjugated secondary antibody were used. Nuclei were stained with DAPI (Vector). All images were captured using a Nikon Eclipse e600 microscope and camera (DXM1200F) and acquired with NIS-Elements Advance software (Nikon).
Duplicate PCR reactions were performed with multiplex PCR kit (Qiagen) using mixed primer (GAPDH and target primer). Semi-quantitative real time PCR was done with Rotor-Gene 3000 (Corbett Robotics) and QuantiFast SYBR Green PCR kit (Qiagen). All real-time PCR reactions were performed in triplicate with GAPDH as an internal control. Target gene levels in treated samples are presented as a ratio to levels detected in corresponding control samples, according to the ΔΔCt method.
Data set [8] relates to canonical Wnt pathway (β-catenin, Wnt ligands). The data set can be described thus: Canonical Wnt pathway in livers of APAP treated mice (western blot, immunohistochemistry, Wnt ligand PCR). In kind it is in vivo. The procedure:
Semi-quantitative real time PCR was done with Rotor-Gene 3000 (Corbett Robotics) and QuantiFast SYBR Green PCR kit (Qiagen). All real-time PCR reactions were performed in triplicate with GAPDH as an internal control. Target gene levels in treated samples are presented as a ratio to levels detected in corresponding control samples, according to the ΔΔCt method. Western blotting was performed as described (Soeda, J et al., 2012). Western blots shown are representative of 2 or 3 independent repeats. Semi-quantitative analysis of western blots by densitometry was carried out using LabWorks 4.6 software (UVP, USA).

Data set [9] concerns hepatic stellate cells (HSC) and Kupffer cells (KC). The data set can be described thus: Wnt expression in isolated liver cell types ex vivo. The following applies: presence of ISO. The class given is cell-based, mice.
Another data set concerns β-catenin in hepatocytes. Description: β-catenin expression on primary hepatocytes (western blotting). The class given is cell-based, mice. The following applies: data not shown. On the procedure: Western blotting was performed as described (Soeda, J et al., 2012). Western blots shown are representative of 2 or 3 independent repeats. Semi-quantitative analysis of western blots by densitometry was carried out using LabWorks 4.6 software (UVP, USA).

For data set [10], the system named is HPC expansion and hepatomegaly. The data set can be described thus: Dbh−/− mice on a diet inducing NASH. Conditions: infusion of ISO. The class given is in vivo.
In data set [11] the test system is hepatic progenitor cells (HPC). The data set can be described thus: HPC number in APAP induced liver injury model (flow cytometry, immunohistochemistry).
For data set [12], the system named is HPC population and liver injury. The following applies: in vivo conditions simulating NASH.
For data set [13], the system named is hepatic progenitor cells (HPC). The class given is in vivo, mice. The following applies: recombinant TWEAK 0.04 μg/g IP. From the text: FIG. 5C are representative images of immunohistochemical staining with CK19 (DAB chromogen, brown), upper panels; and CK19 with Ki67 (AEC chromogen, red), double staining (middle panels) and NFκB p65 immunostaining (lower panels). Insert=higher magnification, arrow head indicates positive staining of ki67 in CK 19+ve HPCs. White arrow head indicates nuclear localization of NFKb p65 in periportal ductular cells;
Nuclei were stained with DAPI (Vector).

Setting [14] is: 24 h after APAP 375 mg/kg, APAP alone vs ISO (2.5 mg/kg) 1 h after APAP.

`COc1cc2nc(N3CCN(C(=O)c4ccco4)CC3)nc(N)c2cc1OC` [PRZ, prazosin]: in data set [1], the liver injury entry was “reduced injury” and the liver progenitors entry is reported as “expanded liver progenitors”.

For `NC[C@H](O)c1ccc(O)c(O)c1` [NE, Norepinephrine], in data set [2], the HPC number result was “increases in HPC number” and the liver injury entry is “reduction in liver injury”.

Regarding `CC(=O)N[C@@H](CS)C(=O)O` [NAC, N-Acetyl Cysteine], the “hepatocyte injury (ALT)” value in data set [3] (NAC 150 mg/kg administered 1 hour following APAP overdose) was “markedly reduces hepatocyte injury”. For the same molecule, in [3] (NAC administered 3 hrs post APAP), the “protection from APAP injury (ALT)” value is given as “did not have a protective role”.

Turning to `CNC[C@H](O)c1cccc(O)c1` [PE, phenylephrine], the 603B cell proliferation entry in the data set with 603B cells (PE 10 pM to 10 μM) is reported as “induced moderate but significant proliferation”. Further, the ALT in data set [3] (APAP 375 mg/kg, PE 3 mg (3 mg/kg) 1 h after APAP, 24 hrs) is on record as 2000±1200; in data set [3] (APAP 375 mg/kg, PE 10 mg (10 mg/kg) 1 h after APAP, 24 hrs) it was 450±200.

Consider `CC(C)NCC(O)c1ccc(O)c(O)c1` (stereo not shown) [ISO, Isoprenaline], for which the “HPC numbers (CK-19 positive cells)” value in data set [4] is given as “significantly recovered HPC numbers”. Moreover, the 603B cell proliferation entry in the data set on 603B cells (ISO 100 pM-10 μM) is listed as “induced 603B cell proliferation”. In data set [5], the “number of HPC cells (EpCAM flow cytometry, CK19 immunohistochemistry)” value was “increased the number of the HPC cells”. In data set [6] (10 μM ISO, real-time PCR), the “Wnt1, 3a, 6 and ma mRNA expression” value is listed as “significantly increased”. In addition, in data set [6] (10 μM ISO, western blot), the “expression of cyclin D1” value is “significantly upregulated”, the “expression of dephophorelated β-catenin (activated β-catenin)” value was “significantly upregulated” and the “total β-catenin expression” value is on record as “significantly increased”. For the same molecule, in data set [6] (immunofluorescence cytochemistry), the “nuclear localisation of β-catenin” value is recorded as “accumulation of β-catenin in the nuclei”. Moreover, the “Wnt6 mRNA in total liver” value in [7] (24 h after ISO injection) was “upregulation of Wnt6 mRNA”. Besides, in [7] (24 h after ISO, immunohistochemistry), the “β-catenin immunoreactivity on periportal ductular cell” value is given as “strong β-catenin immunoreactivity”. Moreover, the “ALT 3 h after APAP treatment” value in [3] is reported as “significantly attenuated”. In data set [3] (setting [14]), this molecule returned an ALT of 674.1±173 IU/L and a hepatic necrosis of 18.48±1.935%. Also, the “effect on deaths after APAP” value in data set [3] (APAP 500 mg/kg intraperitoneally, ISO treatment) is “reduced by ISO treatment”. In data set [3] (ISO administered 3 hrs post APAP), the “APAP induced-liver injury (ALT)” value is recorded as “markedly reduced APAP induced-liver injury”. In addition, in data set [8] (24 h after injection, ISO treated vs APAP alone and controls), the “β-catenin expression in liver (Western blotting)” value is on record as “significantly increased”. Also, the “Wnt6 expression in total liver” value in [8] (APAP+ISO group compared to APAP only group, 24 h) is “significantly higher expression”. Also, the “Wnt 10a expression” value in data set [8] (APAP+ISO group, 2 h after APAP administration) is recorded as “significantly higher expression”. The β-catenin activation result in data set [8] (APAP+ISO group, 3 h after APAP administration) is “significant β-catenin activation”. In [8] (APAP+ISO treated groups, 24 h), the “activated β-catenin staining in liver (immunohistochemistry)” value is given as “strong β-catenin staining”. In data set [9], the “Wnt 6 expression in HSC or KC” value was “did not induce upregulation of Wnt 6”. Also, the “β-catenin expression on hepatocytes (Western blotting)” value with β-catenin in hepatocytes is “did not increase β-catenin expression”. In data set [2], the HPC number entry is “increases in HPC number” and the liver injury result is recorded as “reduction in liver injury”. Besides, the “loss of hepatomegaly and expansion of HPC on NASH diet” value in data set [10] was “reversed”. Also, the “protection of hepatocytes from APAP induced death (LDH release)” value in the data set on primary hepatocytes (ISO pre-treatment 100 pM-10 μM, 10 mM APAP) was “did not protect”. Moreover, the “number of HPCs (flow cytometry and immunohistochemistry)” value in data set [11] (APAP 375 mg/kg + ISO vs APAP alone) is on record as “significantly increased the number of HPCs”. For the same molecule, in [11] (APAP+ISO group compared to APAP alone group), the “HPC density in the smallest portal tract (CK19 positivity)” value is recorded as “significantly increased”.

For the molecule Wnt3a, the “β-catenin expression on hepatocytes (Western blotting)” value in the data set on β-catenin in hepatocytes was “induced increased β-catenin expression”.

Take `CC(=O)Nc1ccc(O)cc1` [APAP, Paracetamol]: in [3], the “ALT 3 h after APAP treatment” value is reported as “significant elevation in ALT”. This molecule also displayed an ALT in data set [3] (setting [14]) of 3332±462.9 IU/L. For the same molecule, in data set [3] (APAP 500 mg/kg intraperitoneally), the deaths entry is reported as “significant number of deaths”.

As for `CC(C)NCC(O)COc1cccc2ccccc12` (stereo not shown) [PRL, propranolol], the “effect on ISO induced 603B proliferation” value with 603B cells (pre-treatment with 10 μM PRL, 10 μM ISO) is reported as “inhibited ISO induced proliferation”. The HPC population result in [12] was “expanded the HPC population”. Also, in [11] (APAP with subsequent PRL), the “numbers of HPCs (CK19 positive cells density)” value was “reduced numbers of HPCs”.

B1: DKK1: Wnt antagonist, recombinant mouse Dkk1 (protein, UniProt O54908 32-272, looked up)
Dickkopf-related protein 1: TLNSVLINSNAIKNLPPPLGGAGGQPGSAVSVAPGVLYEGGNKYQTLDNYQPYPCAEDEECGSDEYCSSPSRGAAGVGGVQICLACRKRRKRCMRHAMCCPGNYCKNGICMPSDHSHFPRGEIEESIIENLGNDHNAAAGDGYPRRTTLTSKIYHTKGQEGSVCLRSSDCAAGLCCARHFWSKICKPVLKEGQVCTKHKRKGSHGLEIFQRCYCGEGLACRIQKDHHQASNSSRLHTCQRH
On to B1, for which the “proliferation of ISO-treated vs ISO plus DKK1-treated 603B cells” value with 603B cells (recombinant Dkk1 0.1 μg/ml, ISO 10 μM, CCK8) is “trend towards statistical difference”. Moreover, the “effect on protection by EpCAM positive cell administration” value in data set [3] (APAP + EpCAM+ve cells + DKK1) is given as “reversed the effect of EpCAM positive cell administration”. In addition, the “effect on protection by ISO stimulated 603B conditioned media” value in the data set with primary hepatocytes (recombinant DKK1 0.1 μg/ml with CM) is on record as “reversed”.

B2: TWEAK: Tumour associated weak inducer of apoptosis; mouse recombinant TWEAK (R&D systems) (protein, UniProt O43508 94-249, looked up)
Tumor necrosis factor ligand …: SAPKGRKTRARRAIAAHYEVHPRPGQDGAQAGVDGTVSGWEEARINSSSPLRYNRQIGEFIVTRAGLYYLYCQVHFDEGKAVYLKLDLLVDGVLALRCLEEFSATAASSLGPQLRLCQVSGLLALRPGSSLRIRTLPWAHLKAAPFLTYFGLFQVH
Regarding B2, the “APAP induced liver injury (% necrosis, serum ALT)” value in data set [3] (TWEAK 0.04 μg/g pre-treatment before APAP, 24 h) was “protected from APAP induced liver injury”. Moreover, the “HPC proliferation (CK19+ve cells)” value in data set [13] is given as “induced HPC proliferation”.

The record behind these values is patent US20150366821A1, “ADRENERGIC AGONISTS FOR USE IN TREATING LIVER DAMAGE” (priority 2012, published 2015).
